Data: patent US20140120087A1, “TRIAZOLOPYRIDINES” (BAYER INTELLECTUAL PROPERTY GMBH, priority 2011, published 2014)

Tests used:
Mps-1 kinase [1] = target: T1, Mps-1 kinase (Homo sapiens, UniProt P33981); assay: Mps-1 kinase assay with 10 μM ATP (TR-FRET)
T1 sequence (P33981 1-857): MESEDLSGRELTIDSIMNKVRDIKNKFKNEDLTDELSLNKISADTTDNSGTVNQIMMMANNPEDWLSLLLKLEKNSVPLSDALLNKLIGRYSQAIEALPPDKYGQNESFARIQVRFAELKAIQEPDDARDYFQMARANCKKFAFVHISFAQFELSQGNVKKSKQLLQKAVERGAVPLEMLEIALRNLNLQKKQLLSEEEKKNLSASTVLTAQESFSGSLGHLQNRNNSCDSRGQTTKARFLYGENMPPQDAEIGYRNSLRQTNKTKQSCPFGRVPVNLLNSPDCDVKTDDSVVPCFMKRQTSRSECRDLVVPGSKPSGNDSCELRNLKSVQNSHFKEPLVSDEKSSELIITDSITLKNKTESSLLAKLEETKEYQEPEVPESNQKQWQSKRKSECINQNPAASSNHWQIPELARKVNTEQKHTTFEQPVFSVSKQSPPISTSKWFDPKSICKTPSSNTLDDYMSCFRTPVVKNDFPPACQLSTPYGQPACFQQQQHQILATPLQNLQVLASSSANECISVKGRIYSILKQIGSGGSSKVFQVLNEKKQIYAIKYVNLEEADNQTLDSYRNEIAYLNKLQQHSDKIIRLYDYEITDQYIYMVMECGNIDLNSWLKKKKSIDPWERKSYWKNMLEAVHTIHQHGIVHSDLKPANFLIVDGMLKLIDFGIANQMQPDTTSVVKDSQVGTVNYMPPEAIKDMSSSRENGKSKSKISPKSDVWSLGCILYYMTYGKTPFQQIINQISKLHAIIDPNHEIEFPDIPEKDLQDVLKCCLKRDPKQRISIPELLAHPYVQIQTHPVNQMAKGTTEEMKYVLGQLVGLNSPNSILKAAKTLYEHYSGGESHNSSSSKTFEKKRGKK

Mps-1 kinase [2] = target: T1, Mps-1 kinase; assay: Mps-1 kinase assay with 2 mM ATP (TR-FRET)

Structure (SMILES)	IC50 (Mps-1 kinase [1]) [nM]	IC50 (Mps-1 kinase [2]) [nM]
COc1cc(C(N)=O)ccc1Nc1nc2ccc(-c3ccc(C(=O)NCc4ccc(F)cc4)cc3)cn2n1 [Example 12.43, 4-[(6-{4-[(4-fluorobenzyl)-carbamoyl]phenyl}[1,2,4]triazolo [1,5-a]pyridin-2-yl)-amino]-3-methoxy-benzamide]	≤ 1	≤ 1
CS(=O)(=O)c1ccc(Nc2nc3ccc(-c4ccc(C(=O)NCc5ccc(F)cc5)cc4)cn3n2)c(OC(F)F)c1 [Example 02.28, 4-(2-{[2-(difluoromethoxy)-4-(methylsulfonyl)phenyl]amino}[1,2,4]triazolo-[1,5-α]pyridin-6-yl)-N-(4-fluorobenzyl)benzamide]	≤ 1	3.5
COc1ccc(Nc2nc3ccc(-c4ccc(C(=O)NCc5ccc(F)cc5)cc4)cn3n2)c(C)c1 [Example 12.71, N-(4-fluorobenzyl)-4-{2-[(4-methoxy-2-methylphenyl)-amino][1,2,4]triazolo[1,5-a]pyridin-6-yl}benzamide]	≤ 1	8.8
COc1cc(S(C)(=O)=O)ccc1Nc1nc2ccc(-c3ccc(C(=O)NCc4ccc(Cl)cc4)cc3)cn2n1 [Example 12.73, N-(4-chlorobenzyl)-4-(2-{[2-methoxy-4-(methylsulfonyl)-phenyl]amino}[1,2,4]triazolo [1,5-a]pyridin-6-yl)-benzamide]	≤ 1	16
COc1cc(C(=O)NCCF)ccc1Nc1nc2ccc(-c3ccc(C(=O)NCc4ccc(F)cc4)cc3)cn2n1 [Example 12.45, 4-[(6-{4-[(4-fluorobenzyl)-carbamoyl]phenyl}[1,2,4]triazolo [1,5-a]pyridin-2-yl)-amino]-N-(2-fluoroethyl)-3-methoxybenzamide]	≤ 1	1.4
Cc1cc([S@@+](C)[O-])ccc1Nc1nc2ccc(-c3ccc(C(=O)NCc4ccc(Cl)cc4)cc3)cn2n1 (stereo in doubt) [Example 12.75, N-(4-chlorobenzyl)-4-(2-{[2-methyl-4-(methylsulfinyl)-phenyl]amino}[1,2,4]triazolo [1,5-a]pyridin-6-yl)-benzamide]	≤ 1	5.1
Cc1cc(C(=O)NCCF)ccc1Nc1nc2ccc(-c3ccc(C(=O)NCc4ccc(F)cc4)cc3)cn2n1 [Example 12.67, 4-[(6-{4-[(4-fluorobenzyl)-carbamoyl]phenyl}[1,2,4]triazolo [1,5-a]pyridin-2-yl)-amino]-N-(2-fluoroethyl)-3-methylbenzamide]	≤ 1	5
COc1cc(C(C)(C)O)ccc1Nc1nc2ccc(-c3ccc(NC(=O)Cc4ccc(F)cc4)cc3)cn2n1 [Example 12.17, 2-(4-fluorophenyl)-N-[4-(2-{[4-(2-hydroxypropan-2-yl)-2-methoxyphenyl]amino}-[1,2,4]triazolo[1,5-a]pyridin-6-yl)phenyl]acetamide]	≤ 1	≤ 1
CS(=O)(=O)CCNC(=O)c1ccc(Nc2nc3ccc(-c4ccc(NC(=O)Cc5ccc(F)cc5)cc4)cn3n2)c(OCC(F)(F)F)c1 [Example 12.21, 4-{[6-(4-{[(4-fluorophenyl)-acetyl]amino}phenyl)[1,2,4]triazolo[1,5-a]pyridin-2-yl]amino}-N-[2-(methyl-sulfonyl)ethyl]-3-(2,2,2-trifluoroethoxy)benzamide]	≤ 1	≤ 1
COc1cc(S(C)(=O)=O)ccc1Nc1nc2ccc(-c3ccc(NC(=O)Cc4ccc(F)c(C)c4)cc3)cn2n1 [Example 12.40, 2-(4-fluoro-3-methylphenyl)-N-[4-(2-{[2-methoxy-4-(methylsulfonyl)phenyl]-amino}[1,2,4]triazolo[1,5-a]pyridin-6-yl)phenyl]-acetamide]	≤ 1	9.9
CS(=O)(=O)c1ccc(Nc2nc3ccc(-c4ccc(NC(=O)Cc5ccc(F)cc5)cc4)cn3n2)c(OCC(F)(F)F)c1 [Example 01.34, 2-(4-fluorophenyl)-N-[4-(2-{[4-(methylsulfonyl)-2-(2,2,2-trifluoroethoxy)-phenyl]amino}[1,2,4]triazolo[1,5-α]pyridin-6-yl)phenyl]acetamide]	≤ 1	≤ 1
CS(=O)(=O)c1ccc(Nc2nc3ccc(-c4ccc(NC(=O)Cc5ccc(F)cc5)cc4)cn3n2)c(OC2CC2)c1 [Example 01.37, N-[4-(2-{[2-(cyclopropyloxy)-4-(methylsulfonyl)phenyl]amino}[1,2,4]-triazolo[1,5-α]pyridin-6-yl)phenyl]-2-(4-fluorophenyl)acetamide]	≤ 1	1.6
COc1cc(S(C)(=N)=O)ccc1Nc1nc2ccc(-c3ccc(C(=O)NCc4ccc(F)cc4)cc3)cn2n1 (stereo not drawn) [Example 12.83, N-(4-fluorobenzyl)-4-(2-{[2-methoxy-4-(S-methylsulfonimidoyl)phenyl]-amino}[1,2,4]triazolo[1,5-α]pyridin-6-yl)benzamide]	≤ 1	1.8
Cc1cc(S(C)(=O)=O)ccc1Nc1nc2ccc(-c3ccc(NC(=O)Cc4ccc(F)cc4)cc3)cn2n1 [Example 12.32, 2-(4-fluorophenyl)-N-[4-(2-{[2-methyl-4-(methyl-sulfonyl)phenyl]amino}-[1,2,4]triazolo[1,5-a]pyridin-6-yl)phenyl]acetamide]	≤ 1	2.2
CS(=O)(=O)c1ccc(Nc2nc3ccc(-c4ccc(NC(=O)Cc5ccc(F)cc5)cc4)cn3n2)c(F)c1 [Example 12.39, N-[4-(2-{[2-fluoro-4-(methylsulfonyl)phenyl]-amino}[1,2,4]triazolo[1,5-a]pyridin-6-yl)phenyl]-2-(4-fluorophenyl)acetamide]	≤ 1	16
Cc1cc(C(=O)N(C)C)ccc1Nc1nc2ccc(-c3ccc(NC(=O)Cc4ccc(F)cc4)cc3)cn2n1 [Example 12.31, 4-{[6-(4-{[(4-fluorophenyl)-acetyl]amino}phenyl)[1,2,4]triazolo[1,5-a]pyridin-2-yl]amino}-N,N,3-trimethyl-benzamide]	≤ 1	3.8
COCCNC(=O)c1ccc(Nc2nc3ccc(-c4ccc(C(=O)NCc5ccc(F)cc5)cc4)cn3n2)c(OC)c1 [Example 12.44, 4-[(6-{4-[(4-fluorobenzyl)-carbamoyl]phenyl}[1,2,4]triazolo [1,5-a]pyridin-2-yl)-amino]-3-methoxy-N-(2-methoxyethyl)benzamide]	≤ 1	1.6
COc1cc(C(=O)NCCN(C)C)ccc1Nc1nc2ccc(-c3ccc(NC(=O)Cc4ccc(F)cc4)cc3)cn2n1 [Example 12.10, N-[2-(dimethylamino)ethyl]-4-{[6-(4-{[(4-fluorophenyl)-acetyl]amino}phenyl)[1,2,4]triazolo[1,5-a]pyridin-2-yl]amino}-3-methoxy-benzamide]	≤ 1	≤ 1
CCOc1cc(C(=O)NCCN(C)C)ccc1Nc1nc2ccc(-c3ccc(C(=O)NCc4ccc(F)cc4)cc3)cn2n1 [Example 12.55, N-[2-(dimethylamino)ethyl]-3-ethoxy-4-[(6-{4-[(4-fluoro-benzyl)carbamoyl]phenyl}-[1,2,4]triazolo[1,5-a]pyridin-2-yl)amino]benzamide]	≤ 1	≤ 1
COc1cc(S(C)(=O)=O)ccc1Nc1nc2ccc(-c3ccc(C(=O)NCc4ccc(F)cc4F)cc3)cn2n1 [Example 11.01, N-(2,4-difluorobenzyl)-4-(2-{[2-methoxy-4-(methylsulfonyl)phenyl]amino}-[1,2,4]triazolo[1,5-α]pyridin-6-yl)benzamide]	≤ 1	11
